Test results from patent publication US7208517B1, “Endothelin antagonists” (Abbott Labortories, priority 1994, dated 2007).
pIC50: −log10 of the molar value.

Experiments:
[1] = test system: male subjects with hormone refractory prostate cancer; experiment: Interleukin-6 levels in serum of treated subjects; assay type: in vivo, human; settings: subjects treated versus placebo
Protocol: Studies were performed on male subjects with asymptomatic hormone refractory prostate cancer with rising PSA levels and on male subjects with symptomatic hormone refractory prostate cancer with rising PSA levels and pain. Subjects in the phase II studies had castrate levels of testosterone, either due to pharmacologic intervention, via leuprolide (Lupron®) or goserelin (Zoladex®), or via surgical castration. Subjects received ABT-627 or placebo. The following tests were conducted:
ABT-627 was formulated in 2.5 and 10 mg doses. An oral liquid formulation of ABT-627 was also prepared as follows: 1 mg/ml ABT-627, 50% glycerin, 14% alcohol, and water. Matching placebos were also provided.
The effect of ABT-627 adminstration on Interleukin-6 levels in human serum samples was determined at Quintiles Laboratories using a sandwich immunoassay. Human serum samples and standards were incubated in microtiter plate wells coated with a monoclonal anti-IL-6 antibody, in the presence of a second monoclonal anti IL-6 antibody, linked to acetylcholinesterase. After incubation, the wells were washed, and the bound enzymatic activity was measured using a chromogenic substrate. The intensity of the color was proportional to the concentration of IL-6 in the sample or standard.

ETA Receptor = molecular target: T1, ETA Receptor (Rattus norvegicus, UniProt P26684); experiment: [125I]ET-1 binding to membranes from MMQ cells (ETA receptor binding assay, Table 4); settings: test compound at 1 μM; 0.1 nM [125I]ET-1, MMQ cell membranes, 4 hours at 25° C.; read-out: % Inhibition of ETA at 1 μM
T1 construct: endogenous in cells; host or cells: MMQ rat pituitary cells (membranes)
T1 sequence (P26684 21-426): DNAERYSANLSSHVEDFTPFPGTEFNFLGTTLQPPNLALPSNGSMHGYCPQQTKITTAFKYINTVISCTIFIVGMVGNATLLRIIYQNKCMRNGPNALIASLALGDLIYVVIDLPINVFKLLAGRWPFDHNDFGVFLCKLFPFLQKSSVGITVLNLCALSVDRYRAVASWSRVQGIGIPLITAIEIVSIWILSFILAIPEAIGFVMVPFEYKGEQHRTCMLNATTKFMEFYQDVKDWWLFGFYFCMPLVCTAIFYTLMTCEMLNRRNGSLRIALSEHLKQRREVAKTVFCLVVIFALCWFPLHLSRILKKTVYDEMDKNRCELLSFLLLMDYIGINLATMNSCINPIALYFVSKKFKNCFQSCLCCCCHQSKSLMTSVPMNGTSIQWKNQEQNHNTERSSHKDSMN

human ETA receptor = molecular target: T2, human ETA receptor (Homo sapiens, UniProt P25101); experiment: ETA/ETB selectivity: (125I)ET-1 competition binding, CHO cells transfected with human ETA receptor (hET-A); settings: CHO cells transfected with human ETA receptor; 0.1 nM (125I)ET-1; read-out: hET-A IC50
T2 construct: expressed in transfected cells; host or cells: CHO cells, permanently transfected
T2 sequence (P25101 21-427): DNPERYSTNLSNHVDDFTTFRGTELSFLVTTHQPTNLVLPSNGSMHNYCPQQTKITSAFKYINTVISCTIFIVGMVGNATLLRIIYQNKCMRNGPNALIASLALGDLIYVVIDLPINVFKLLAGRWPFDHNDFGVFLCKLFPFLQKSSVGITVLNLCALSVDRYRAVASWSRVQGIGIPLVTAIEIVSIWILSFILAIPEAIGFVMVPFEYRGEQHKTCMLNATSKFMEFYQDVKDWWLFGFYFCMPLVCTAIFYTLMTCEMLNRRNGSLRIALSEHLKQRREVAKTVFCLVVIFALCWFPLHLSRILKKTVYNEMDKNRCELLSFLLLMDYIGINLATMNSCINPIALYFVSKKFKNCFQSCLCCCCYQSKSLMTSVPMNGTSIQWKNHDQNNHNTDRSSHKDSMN
Protocol: The mixture was centrifuged at 1000×g for 10 min. The supernatant was collected and centrifuged at 60,000×g for 60 min. The precipitate was resuspended in 20 mM Tris, pH 7.4 containing protease inhibitor and centrifuged again. The final membrane pellet was resuspended in 20 mM Tris, pH 7.4 containing protease inhibitors and stored at −80° C. until used. Protein content was determined by the Bio-Rad dye-binding protein assay.
Binding assays were performed in 96-well microtiter plates pretreated with 0.1% BSA. […] After incubation, unbound ligands were separated from bound ligands by a vacuum filtration method using glass-fiber filter strips in PHD cell harvesters (Cambridge Technology, Inc., MA), washing the filter strips three times with saline (1 mL). Nonspecific binding was determined in the presence of 1 μM ET-1. IC50 values are calculated using an average of at least two separate determinations.

SMILES	average change in baseline for Interleukin-6 (AUC, FIG. 1) [1]	inhibition at 1 µM (ETA Receptor) [%]	pIC50 (human ETA receptor)
CCCCCN(CCCC)C(=O)CN1C[C@H](c2ccc3c(c2)OCO3)[C@@H](C(=O)O)[C@@H]1c1ccc(OC)cc1 [ABT-627]	the average change in baseline for Interleukin-6 was lower	–	–
CCCCN(CCCC)C(=O)CN1CC(c2ccc3c(c2)OCO3)C(C(=O)O)C1CC(C)(C)CCC (stereo not shown) [compound 503]	–	97	9.04
CCCCN(CCCC)C(=O)CN1CC(c2ccc3c(c2)OCO3)C(C(=O)O)C1CCC1OCCO1 (stereo not shown) [compound 504]	–	97.1	8.34
CCCCN(CCCC)C(=O)CN1CC(c2ccc3c(c2)OCO3)C(C(=O)O)C1CCC1CCCCO1 (stereo not shown) [compound 505]	–	95.8	8.24
CCCCN(CCCC)C(=O)CN1CC(c2ccc3c(c2)OCO3)C(C(=O)O)C1CC(C)(C)C=C(C)C (stereo not shown) [compound 506]	–	99.7	8.52
CCCCN(CCCC)C(=O)CN1CC(c2ccc3c(c2)OCO3)C(C(=O)O)C1CC(C)(C)C1OCCO1 (stereo not shown) [compound 507]	–	99.3	8.79
CCCCN(CCCC)C(=O)CN1CC(c2cc(OC)c3c(c2)OCO3)C(C(=O)O)C1CCC1OCCO1 (stereo not shown) [compound 509]	–	100	9.29
CCCCN(CCCC)C(=O)CN1CC(c2ccc3c(c2)OCO3)C(C(=O)O)C1COc1ccccc1OC (stereo not shown) [compound 510]	–	100	9.00
CCCC(CCC)N(C(=O)CN1CC(c2cc(OC)c3c(c2)OCO3)C(C(=O)O)C1CCC1OCCO1)c1ccc(F)c(C)c1 (stereo not shown) [compound 513]	–	98	9.44
CCCCN(CCCC)C(=O)CN1C[C@H](c2ccc3c(c2)CCO3)[C@@H](C(=O)O)[C@@H]1CC(C)(C)CCC [compound 515]	–	99.1	8.17
CCCCN(CCCC)C(=O)CN1CC(c2cc(OC)c3c(c2)OCO3)C(C(=O)O)C1CC(C)(C)C1OCCO1 (stereo not shown) [compound 516]	–	99.7	8.74
CCCCN(CCCC)C(=O)CN1CC(c2ccc3c(c2)OCO3)C(C(=O)O)C1CCc1ccccc1OC (stereo not shown) [compound 517]	–	94.1	9.37
CCCCN(CCCO)C(=O)CN1CC(c2ccc3c(c2)OCO3)C(C(=O)O)C1c1ccc(OC)cc1 (stereo not shown) [compound 523]	–	99	9.48
CCCON(CCC)C(=O)CN1CC(c2ccc3c(c2)OCO3)C(C(=O)O)C1c1ccc(OC)cc1 (stereo not shown) [compound 524]	–	99.2	9.09
CCCCN(C(=O)CN1CC(c2ccc3c(c2)OCO3)C(C(=O)O)C1c1ccc(OC)cc1)c1cccnc1 (stereo not shown) [compound 531]	–	99.8	9.15
CCCCN(CCCC)C(=O)CN1C[C@H](c2ccc3c(c2)OCO3)[C@@H](C(=O)O)[C@@H]1CC(C)(C)CCC [compound 537]	–	97.2	9.64
